Some results are limits rather than exact numbers.

The text below walks through data of patent US20100266618A1, “COMPOSITIONS AND METHODS FOR AUGMENTING ACTIVITY OF ONCOLYTIC VIRUSES” (priority 2009, published 2010).

A short description of data set [1]: Maximum tolerable dose (MTD) study. Type of data set: in vivo. Particulars: single IP injection, CD-1 nude mice. As for the experimental part: (§1) Maximum tolerable dose (MTD) and pharmacokinetic (PK) studies in mice: For MTD studies, groups of three CD-1 nude mice (6-8 weeks old) were given a single intraperitoneal (IP) injection of Compound 2 (in log 2 increments, diluted in 10% Tween-80) ranging from […]-1000 mg/Kg. The animals were monitored twice daily for signs of distress, including weight loss, morbidity, and respiratory distress. For PK studies, groups of three CD-1 nude mice (6-8 weeks old) were given a single IP injection of Compound 2 (250 mg/Kg), and blood was taken from the saphenous vein at the indicated timepoints. The blood was centrifuged at 3,000 rpm for 10 min, and plasma collected and frozen (−80 deg C.). Plasma samples were analyzed for Compound 2 using LC-MS. To 10 μL plasma, 20 μL acetonitrile was added, vortexed briefly and centrifuged at 14,000 rpm for 10 min. The clear supernatant was transferred in to a vial for LC-MS analysis. Chromatographic separations were carried out on an Acquity UPLC BEH C18 (2.1×50 mm, […]) column using ACQUITY UPLC system. The mobile phase was 0.1% formic acid in water (solvent A) and 0.1% formic acid in acetonitrile (solvent B). A gradient starting at 95% solvent A going to 5% in 4.5 min, holding for 0.5 min, going back to 95% in 0.5 min and equilibrating the column for 1 min was employed. […]

A short description of data set [2]: Pharmacokinetic (PK) study, plasma LC-MS. Type of data set: in vivo. Particulars: CD-1 nude mice. The method, then: as §1
In another data set the test system is OVCAR-4 xenograft. Put plainly: Ovarian xenograft model, bioluminescent imaging. Type of data set: in vivo, CD-1 nude mice. As for the experimental part: Ovarian xenograft model: Human ovarian carcinoma-derived OVCAR-4 cells, adapted for bioluminescent imaging, were injected into 6-8 week old athymic CD-1 nude mice (IP injection, 5×10^6 cells per mouse). Untreated animals develop measurable abdominal tumours (assessed by IVIS imaging) by 4-7 days, become icteric by 3-4 months and must be euthanized shortly thereafter due to systemic disease as characterized by enlarged cancerous liver and spleen, pale kidneys, and cancerous lymph nodes on the abdominal mesentery. For efficacy experiments, Compound 2 (250 mg/kg; or vehicle (10% Tween-80)) was administered twice daily (IP injections), beginning on day 14 and ending on day 19. Maraba-DM (1×10^5 pfu per cell) or PBS was injected IV (tail vein) on day 16, 17, 19, 23, 25, 27. Animals were monitored daily for weight loss, morbidity, hind leg paralysis and respiratory distress. Tumour images were captured twice weekly with a Xenogen 200 IVIS system (Caliper LS, USA), and total luminescent flux was analyzed on computerized software (Xenogen).

Another data set relates to EMT6 tumours. Put plainly: EMT6 syngeneic breast cancer model, bioluminescent imaging and survival. Type of data set: in vivo, Balb/c mice. The method, then: EMT6 syngeneic breast cancer models: Murine EMT6 breast cancer-derived cells (1×10^5 per mouse) were adapted for bioluminescent imaging and injected into the fat pad of the right lower breast in 6-8 week old Balb/c mice. Mice developed palpable tumours by 5-7 days, which grew rapidly. At 7 days post-tumour implants, mice were treated with Compound 2 (250 mg/kg, IP) or vehicle, twice daily, for six days. Maraba-DM (1×10^7 pfu per cell) or PBS was injected IV (tail vein) on day 10, 11, 13, 16, and 17. Animals were monitored daily for piloerection, weight loss, morbidity, hind leg paralysis and respiratory distress. Tumour images were captured twice weekly using a Xenogen 200 IVIS system (Caliper LS, USA), and total luminescent flux was analyzed on computerized software (Xenogen). Mice were euthanized when the total flux exceeded 1×10^7, which corresponded to a tumour burden of ˜500 mm^3 and occurred between 14-17 days in untreated animals.

The subject of a further data set is EMT6 breast cancer line. Put plainly: In vitro cytotoxicity assay with small molecule followed by Maraba virus infection. Particulars: 50 uM for 48 h prior to Maraba virus infection.
The test system of a further data set is U373 and OVCAR8 cells. It is filed as cell-based, human.

Method for EMT6 breast cancer line: In vitro cytotoxicity assays with small molecules: Cells were seeded onto 96 well plates to a confluence of ˜50%. The following day, siRNA transfections were performed, or small-molecule IRE1α inhibition was initiated. For the small-molecules, DMSO was used as a vehicle with a [drug]=20-50 μM. Drug treatment occurred for either 4 h (“acute” treatment), or was re-applied at 24 h and left for 48 h total (“chronic” treatment). Following knockdown or chemical inhibition, the cells were infected at log dilutions with the indicated rhabdoviruses. After 48-72 h of infection (depending on the cell line), Resazurin sodium salt was added to a final concentration of 20 μg/ml. After a 6 h incubation the absorbance was read at a wavelength of 573 nm.

On to `COc1cc(-c2cccc(C(N)=O)c2)cc(C=O)c1O` [Compound 2, 3′-formyl-4′-hydroxy-5′-methoxy-[1,1′-biphenyl]-3-carboxamide], for which the tolerated single dose result in data set [1] is “up to 1000 mg/Kg”. Further, the bio-distribution entry in data set [2] was “efficient bio-distribution to the extravascular tissues”. In addition, the half-life in data set [2] (mouse, plasma, intraperitoneal, 250 mg/Kg) was greater than 6 h. Moreover, the “duration of reduced tumour burden” value in the data set on OVCAR-4 xenograft (combination with Maraba-DM) is listed as greater than 30 days. Besides, the tumour burden result in the data set with OVCAR-4 xenograft (combination with Maraba-DM, Compound 2 250 mg/kg IP twice daily) is on record as “dramatically reduced tumour burden”; with EMT6 tumours (combination with Maraba virus, 250 mg/Kg IP twice daily for 6 days), “significantly reduced tumour burden”. The tumour growth entry is “rapid re-growth occurred after an early period of tumour regression” in the data set on OVCAR-4 xenograft (single agent) and “neither drug nor virus had an appreciable effect on tumour growth” in the data set with EMT6 tumours (single agent). In addition, the “tumour growth after drug treatment was stopped” value with EMT6 tumours (combination, virus dosing continued) is listed as “tumour re-growth occurred even in the presence of continued virus dosing”. For the same compound, the “efficacy (survival) with extended treatment” value in the data set with EMT6 tumours (treatment extended to more than 12 days in combination with virus) is reported as “continued to increase efficacy”. For the same compound, the “sensitization to oncolytic virus killing” value in the data set with EMT6 breast cancer line is given as “significantly sensitized to oncolytic virus killing”.

On to tunicamycin [reference compound], for which the eIF2alpha phosphorylation entry in the data set with U373 and OVCAR8 cells is “inducing elF2alpha phosphorylation”.
